# Test results from ChEMBL document CHEMBL3886923, “BTK inhibitors” (2016).
# Biological target: Tyrosine-protein kinase BTK (Homo sapiens, UniProt Q06187)
# Assay: LANCE-TR-FRET Assay: Assay Method B: BTK enzymatic activity was determined with the LANCE (Lanthanide Chelate Excite) TR-FRET (Time-resolved fluorescence resonance energy transfer) assay. In this assay, the potency (IC50) of each compound was determined from an eleven point (1:3 serial dilution; final compound concentration range in assay from 1 μM to 0.017 nM) titration curve using the following outlined procedure. To each well of a black non-binding surface Corning 384-well microplate (Corning Catalog #3820), 5 nL of compound (2000 fold dilution in final assay volume of 10 μL) was dispensed, followed by the addition of 7.5 μL of 1× kinase buffer (50 mM Hepes 7.5, 10 mM MgCl2, 0.01% Brij-35, 1 mM EGTA, 0.05% BSA & 1 mM DTT) containing 5.09 pg/μL (66.67 pM) of BTK enzyme (recombinant protein from baculovirus-transfected Sf9 cells: full-length BTK, 6HIS-tag cleaved). Following a 60 minute compound & enzyme incubation, each reaction was initiated by the addition of 2.5 μL 1× kinase buffer containing 8 μM biotinylated "A5" peptide (Biotin-EQEDEPEGDYFEWLE-NH2), and 100 μM ATP. The final reaction in each well of 10 μL consists of 50 pM hBTK, 2 μM biotin-A5-peptide, and 25 μM ATP. Phosphorylation reactions were allowed to proceed for 120 minutes. […]
# Sequence of Tyrosine-protein kinase BTK (Q06187 whole entry): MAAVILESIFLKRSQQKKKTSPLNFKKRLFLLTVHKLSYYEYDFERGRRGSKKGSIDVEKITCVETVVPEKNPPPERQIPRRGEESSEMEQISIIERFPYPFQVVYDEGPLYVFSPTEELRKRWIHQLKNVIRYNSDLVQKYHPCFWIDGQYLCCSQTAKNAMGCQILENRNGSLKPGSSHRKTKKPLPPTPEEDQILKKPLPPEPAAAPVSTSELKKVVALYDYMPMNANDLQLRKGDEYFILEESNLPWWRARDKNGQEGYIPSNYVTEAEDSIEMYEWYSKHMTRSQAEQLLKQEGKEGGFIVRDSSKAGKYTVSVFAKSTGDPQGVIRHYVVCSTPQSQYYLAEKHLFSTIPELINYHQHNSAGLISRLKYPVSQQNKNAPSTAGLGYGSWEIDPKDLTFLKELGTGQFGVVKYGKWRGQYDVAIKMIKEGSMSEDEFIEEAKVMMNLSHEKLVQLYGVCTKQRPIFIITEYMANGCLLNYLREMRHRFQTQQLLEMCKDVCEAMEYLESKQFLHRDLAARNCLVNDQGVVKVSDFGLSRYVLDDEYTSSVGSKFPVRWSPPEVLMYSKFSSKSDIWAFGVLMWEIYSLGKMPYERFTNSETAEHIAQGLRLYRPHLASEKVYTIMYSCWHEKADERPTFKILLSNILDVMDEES
smiles,measurement,value
Cn1ncc2c1CCC[C@@H]2n1nc(-c2ccc(C(=O)Nc3cc(C(F)(F)F)ccn3)cc2)c2c(N)ncnc21,IC50,2.7 nM
